Experiments:
rat aortic rings = experiment: Vasorelaxation: ANP-mediated relaxation of rat aortic rings; conditions: conc. response of ANP in the absence (ANP) or presence of 10 μM compound, L-NAME present
Method: Male Sprague-Dawley (6-8 weeks old) rats were killed by cervical dislocation. The thoracic aorta was dissected and rings (˜4 mm length) mounted in organ baths containing physiological salt solution (PSS; composition in mM: NaCl 119, KCl 4.7, CaCl2 2.5, MgSO4 1.2, NaHCO3 25, KH2PO4 1.2, and glucose 5.5), maintained at 37° C. and gassed with 5% CO2 in O2. Changes in isometric tension were measured in the tissues under a basal tension of 1 g. After equilibration, vessels were repeatedly contracted with KCl (48 mM) until responses were reproducible. A cumulative concentration-response curve was then constructed to the thromboxane receptor agonist 9,11-dideoxy-11α,9α-epoxymethano-prostaglandin F2α (U46619; 10 nm-1 μM). Arteries were then treated with the nitric oxide synthase (NOS) inhibitor L-NG-nitroarginine methyl ester (300 μM; to block the production of endogenous nitric oxide) and pre-contracted with an EC80 concentration of U46619. Once a stable response was achieved, cumulative concentration-response curves were constructed to ANP (0.001-1 μM) in the absence or presence of Compound 1 or Compound 2 (all 10 μM, incubated for 30 min prior to the administration of ANP).

dopamine D1-receptor = molecular target: T1, dopamine D1-receptor (Homo sapiens, UniProt P21728); experiment: Safety pharmacology panel (SafetyScan E/IC50 ELECT); type: cell-based; conditions: minor activity; 78-target panel
T1 construct: purchased Discover X/Eurofins SafetyScan E/IC50 ELECT

β2-adrenergic receptor = molecular target: T2, β2-adrenergic receptor (Homo sapiens, UniProt P07550); experiment: as above; type: cell-based; conditions: minor activity; 78-target panel
T2 construct: purchased Discover X/Eurofins SafetyScan E/IC50 ELECT

β1-adrenergic receptor = molecular target: T3, β1-adrenergic receptor (Homo sapiens, UniProt P08588); experiment: as above; type: cell-based; conditions: minor activity; 78-target panel
T3 construct: purchased Discover X/Eurofins SafetyScan E/IC50 ELECT

[1] = Cytotoxicity screening (Cyprotex Discovery Ltd.); type: cell-based
[2] = molecular target: T4, human (h) natriuretic peptide receptor A (hNPR-A) (Homo sapiens, UniProt P16066); experiment: AlphaScreen assay for cGMP: BNP-mediated NPR-A activity (cGMP production); type: cell-based; conditions: conc. response of compound + 0.1 nM BNP
T4 construct: expressed in transfected cells
T4 sequence (P16066 33-1061): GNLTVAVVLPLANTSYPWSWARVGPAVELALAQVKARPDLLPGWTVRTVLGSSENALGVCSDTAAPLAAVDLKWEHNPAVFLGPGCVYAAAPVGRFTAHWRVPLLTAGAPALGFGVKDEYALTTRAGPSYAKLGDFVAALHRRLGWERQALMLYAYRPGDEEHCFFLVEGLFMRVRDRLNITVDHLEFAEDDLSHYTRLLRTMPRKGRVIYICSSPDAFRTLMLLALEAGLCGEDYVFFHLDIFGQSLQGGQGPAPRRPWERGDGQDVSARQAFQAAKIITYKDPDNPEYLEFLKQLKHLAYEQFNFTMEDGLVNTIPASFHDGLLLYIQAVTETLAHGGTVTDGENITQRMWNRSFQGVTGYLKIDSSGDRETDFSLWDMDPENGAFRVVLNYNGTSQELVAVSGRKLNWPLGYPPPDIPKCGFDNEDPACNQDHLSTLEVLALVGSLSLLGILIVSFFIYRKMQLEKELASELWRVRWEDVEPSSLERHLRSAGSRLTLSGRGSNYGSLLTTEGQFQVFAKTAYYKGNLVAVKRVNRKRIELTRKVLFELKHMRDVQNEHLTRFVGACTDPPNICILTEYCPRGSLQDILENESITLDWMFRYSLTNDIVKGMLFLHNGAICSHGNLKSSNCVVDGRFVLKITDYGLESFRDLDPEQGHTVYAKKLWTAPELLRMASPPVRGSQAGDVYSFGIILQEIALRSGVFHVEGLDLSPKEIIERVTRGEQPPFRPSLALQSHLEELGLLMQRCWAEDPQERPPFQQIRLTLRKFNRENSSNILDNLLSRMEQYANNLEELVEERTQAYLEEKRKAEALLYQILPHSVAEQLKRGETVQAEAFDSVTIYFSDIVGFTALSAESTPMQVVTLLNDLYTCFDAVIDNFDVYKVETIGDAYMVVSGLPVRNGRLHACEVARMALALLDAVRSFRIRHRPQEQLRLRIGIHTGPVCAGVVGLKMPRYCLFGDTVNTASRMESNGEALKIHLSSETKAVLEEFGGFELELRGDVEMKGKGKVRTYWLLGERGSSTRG
T4 sequence (P16860 103-134 partner limits assumed): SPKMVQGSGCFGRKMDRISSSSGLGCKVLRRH
Method: QBIHEK293A cells stably transfected with human (h) natriuretic peptide receptor A (hNPR-A) and hNPR-B were made as described in Bach et al., Naunyn Schmiedebergs Arch. Pharmacol. 2014; 387:5-14. Cells were grown in DMEM (Dulbecco's Modified Eagle's Medium, Gibco®, ThermoFischer Scientific) supplemented with 10% Fetal Bovine Serum (FBS), 100 U/ml penicillin, 0.1 mg/ml streptomycin, and 0.4 mg/ml G418 (geneticin) as selection antibiotic.
The AlphaScreen assay for cGMP (Perkin Elmer) was performed as described in Bach et al. (see above). NPR-A and NPR-B expressing HEK293 cells were split the day before the experiment and harvested using an EDTA solution (Versene, Invitrogen, ThermoFischer Scientific). A final concentration of 6000 cells/well was re-suspended in stimulation buffer (5 mM HEPES in HBSS at pH 7.4, 0.1% BSA) with IBMX (0.7 mM final). Compounds were dissolved in stimulation buffer and added to wells in increasing concentrations. Cells were incubated with the indicated compounds 20 minutes before addition of agonists (human BNP, human CNP or human proBNP) in various concentrations. Cells were stimulated for 20 minutes with agonist before the reactions were stopped (i.e. cells lysed) by adding the AlphaScreen Acceptor bead mix (Acceptor beads-anti-cGMP antibody and 0.5% Tween-20 in 5 mM HEPES buffer at pH 7.4). After 1 hour incubation, the Donor bead mix (Donor beads, biotinylated cGMP, 0.5% Tween-20 in 5 mM HEPES buffer at pH 7.4) was added (40 μl total volume) and incubation continued for 2 hours. The luminescence signals were analyzed quantitatively by reading of the plates on the EnVision® Multilabel Plate Reader (Perkin Elmer) using AlphaScreen emission 570 nm filter.

HeLa cells = experiment: MTT assay (cytotoxicity); type: cell-based; conditions: 24 and 48 h, compared with compounds 3 and 11
Method: Cells were incubated for 24 and 48 h with increasing concentrations of the indicated compound. The data represent formazan formation (absorbance) as a percentage of the negative control (1% DMSO).
The MTT (3-(4,5-dimethylthiazol-2-yl)-2,5-diphenyltetrazolium bromide) tetrazolium reduction assay was used to measure cytotoxicity of the compounds in vitro. Viable cells with active metabolism convert MTT into a purple colored formazan product with an absorbance maximum near 570 nm. HeLa cells were plated in 96-well plates in culture medium (DMEM (Dulbecco's Modified Eagle's Medium, Gibco®, ThermoFischer Scientific) supplemented with 10% Fetal Bovine Serum (FBS), 100 U/ml penicillin, 0.1 mg/ml streptomycin) the day before experiments. Cells were incubated for 24 or 48 h at 37° C. with increasing concentrations of each compound (in 1% DMSO). 1% DMSO and 20 mM H2O2 in culture medium were used as negative and positive control, respectively. MTT solution at a final concentration of 0.45 mg/ml was added to the wells and cells incubated for 1 to 4 hours at 37° C. Solubilization solution (40% (vol/vol) dimethylformamide (DMF), 2% (vol/vol) glacial acetic acid and 16% (wt/vol) sodium dodecyl sulfate (SDS)) was added to each well to dissolve formazan crystals. Absorbance was measured at 570 nm.

T2 sequence (P07550 whole entry): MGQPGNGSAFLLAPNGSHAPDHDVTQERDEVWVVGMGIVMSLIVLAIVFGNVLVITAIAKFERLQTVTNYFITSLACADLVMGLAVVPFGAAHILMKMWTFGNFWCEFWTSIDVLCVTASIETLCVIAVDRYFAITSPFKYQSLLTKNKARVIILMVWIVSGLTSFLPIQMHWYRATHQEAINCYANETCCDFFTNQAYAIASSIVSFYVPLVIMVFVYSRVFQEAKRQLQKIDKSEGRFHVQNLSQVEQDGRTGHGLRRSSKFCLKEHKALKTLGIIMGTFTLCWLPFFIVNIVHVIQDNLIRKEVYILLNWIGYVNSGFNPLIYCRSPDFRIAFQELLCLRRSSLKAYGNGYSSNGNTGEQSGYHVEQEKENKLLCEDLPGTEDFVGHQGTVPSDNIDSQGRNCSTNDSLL
T3 sequence (P08588 whole entry): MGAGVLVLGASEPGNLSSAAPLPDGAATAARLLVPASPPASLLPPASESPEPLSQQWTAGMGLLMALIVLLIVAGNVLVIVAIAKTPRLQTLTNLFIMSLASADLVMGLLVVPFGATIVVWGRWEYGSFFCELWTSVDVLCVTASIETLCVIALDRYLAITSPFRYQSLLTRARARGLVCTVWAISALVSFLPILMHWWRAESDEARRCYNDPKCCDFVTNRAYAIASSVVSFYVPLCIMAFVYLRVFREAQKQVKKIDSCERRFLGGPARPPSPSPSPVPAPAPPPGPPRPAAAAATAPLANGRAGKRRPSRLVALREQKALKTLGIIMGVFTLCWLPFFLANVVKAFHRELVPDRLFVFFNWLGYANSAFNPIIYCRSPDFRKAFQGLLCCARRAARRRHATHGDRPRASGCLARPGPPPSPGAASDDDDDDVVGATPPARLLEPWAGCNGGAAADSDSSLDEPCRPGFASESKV
T1 sequence (P21728 whole entry): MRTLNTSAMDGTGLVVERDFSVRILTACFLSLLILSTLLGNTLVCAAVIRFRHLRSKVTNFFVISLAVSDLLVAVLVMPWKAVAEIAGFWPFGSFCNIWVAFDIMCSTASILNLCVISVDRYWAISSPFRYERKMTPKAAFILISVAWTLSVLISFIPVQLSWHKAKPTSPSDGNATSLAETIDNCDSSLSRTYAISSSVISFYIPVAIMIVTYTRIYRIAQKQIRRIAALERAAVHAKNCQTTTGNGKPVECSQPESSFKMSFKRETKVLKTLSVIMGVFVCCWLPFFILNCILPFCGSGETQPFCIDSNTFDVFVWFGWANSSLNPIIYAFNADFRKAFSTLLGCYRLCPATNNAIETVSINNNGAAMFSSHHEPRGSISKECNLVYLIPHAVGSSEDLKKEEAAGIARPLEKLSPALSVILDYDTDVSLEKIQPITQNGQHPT

Row | Molecule | -LogEC50 (ANP) (rat aortic rings) | IC50 (dopamine D1-receptor) [µM] | IC50 (β2-adrenergic receptor) [µM] | IC50 (β1-adrenergic receptor) [µM] | non-cytotoxic concentration relative to EC50 at the target ([1]; 15 μM versus EC50 of compound 24 at the target) | cytotoxic effects (cell count, nuclear size, DNA structure, cell membrane permeability, mitochondrial mass, mitochondrial membrane potential, cytochrome c) ([1]; at concentrations below 15 μM) | EC50 ([2]; NPR-A-expressing HEK293 cells, read-out: -LogEC50 (compound) (converted)) [µM] | Emax ([2]; percentage of maximum BNP-mediated cGMP production, read-out: Max Response) [%] | toxicity in MTT assay relative to corresponding dichloro compounds (HeLa cells)
1 | ANP: atrial natriuretic peptide, endogenous NPR-A agonist used in vasorelaxation | 8.3 | – | – | – | – | – | – | – | –
2 | O=C(Cn1nccc(Cl)c1=O)c1ccc(Cl)cc1Cl [Compound 24, 4-chloro-2-(2-(2,4-dichlorophenyl)-2-oxoethyl) pyridazin-3(2H)-one] | – | > 6 | > 6 | > 6 | 70-80 fold | did not show any cytotoxic effects | 0.2 | 37.8 | lower toxicity

From patent publication US20240300904A1, “PYRIDAZINONES FOR THE TREATMENT OR PREVENTION OF HYPERTENSION” (UNIVERSITETET I OSLO, priority 2021, published 2024)
